According to US20230097883A1, “ERGOTHIONEINE PET COMPOUNDS AND METHODS OF USE THEREOF” (VANDERBILT UNIVERSITY, priority 2021, published 2023):

Key:
[1] = Cupric ion chelating (CIC) assay; format: biochemical; settings: increasing ERGO concentrations
From the text: (§1) We also assessed ERGO's transition metal scavenging using cupric ion chelating (CIC) and ferrous ion chelating (FIC) assays. In these experiments, pyrocatechol violet or ferrozine forms a complex with free Cu(II) or Fe(II), respectively, resulting in a chromophore with a strong absorbance signal. The pyrocatechol violet-COI) complex has an absorbance lambda max (λmax) at 630 nm, and ferrozine-Fe(II) has a λmax at 562 nm. In the presence of ERGO, fewer free metals are available to form these complexes, resulting in less absorbance.
The copper chelating activity of ERGO was determined using a CIC assay (Zen-Bio Inc., Durham, N.C.). Assays contained triplicated samples, standards, background, and max absorbance wells. All the assay absorbance values were subtracted from the average background absorbance, comprising of water and assay buffer (1:1). Maximal absorbance was measured by averaging the absorbance values of 3 wells containing only CuSO4 and assay buffer. […] The plate was then read at 632 nm using a Biotek Synergy 4 plate reader. Absorbances were averaged, and the background absorbance was subtracted from the sample and maximum averages (Abstest and Absmax). Cupric ion chelating percentage was then calculated using the following equation: Cupric ion chelating (%)=100×(Absmax−Abstest)/Absmax.

[2] = Ferrous ion chelating (FIC) assay; format: biochemical; settings: increasing ERGO concentrations
From the text: as §1
The iron chelating activity of ERGO was determined using a FIC assay, which was obtained from Zen-Bio Inc. (Durham, N.C.). The assay was done on a 96-well plate with triplicated samples, standards, background, and max absorbance wells. All of the assay absorbance values were subtracted from the average background absorbance, comprising of water and assay buffer (1:1). Maximal absorbance was measured by averaging the absorbance values of 3 wells containing only FeSO4 and assay buffer. […] The assaying plate was incubated at room temperature for 10 minutes then the plate was read at 562 nm using a Biotek Synergy 4 plate reader. Absorbances were averaged, and the background absorbance was subtracted from the sample and maximum averages (Abstest and Absmax). […]

oxidative stress = assay: PET imaging of LPS-induced neuroinflammation with [11C]ERGO radioligand, with Tempol blocking; format: in vivo, mouse; settings: LPS 5 mg/Kg i.p. 24 h before; 20 MBq/0.1 mL I.V.; 30 min scan from 10 min after injection
Protocol: The mice were injected with ˜20 MBq/0.1 ml 11C-ERGO via the tail vein and returned to their cages for 10 min. Then they were anesthetized with 2% isofluorane and imaged in an Inveon microPET (Siemens Pre-clinical, Knoxville, Tenn., USA) for 30 min in static mode followed by a CT scan using a NanoSPECT/CT (Mediso, Wash. D.C.) at an x-ray beam intensity of […] and x-ray voltage of 45 kVp. PET images were reconstructed using the iterative MAP reconstruction algorithm with 18 iterations and a beta smoothing value of 0.001 into 128×128×95 slices with a voxel size of 0.388 mm×0.388 mm×0.796 mm. The CT images were reconstructed into 170×170×126 slices at a voxel size of 0.4×0.4×0.4 mm^3. The PET and CT images were co-registered using the imaging tool AMIDE.
The mouse model of LPS-induced neuroinflammation was developed based on past reports. The LPS derived from Escherichia coli […] (Sigma Aldrich, St Louis, Mo.) was formulated in sterilized dd. water and given a high dose of LPS formulation (5 mg/Kg) through intraperitoneal injection 24 h before PET imaging. This high dose would result in approximately 12-13% body weight loss over the course of 24 h. After PET imaging, animals were sacrificed, and the brains were collected for histology analysis.
The reported LPS mouse model of neuroinflammation in the past was reproduced for the validation of the specificity of the probe. […]

| Compound | absorbance signal of pyrocatechol violet-Cu(II) complex [1] | absorbance signal of ferrozine-Fe(II) complex [2] | PET signal in brain regions, LPS-treated versus nontreated WT mice (oxidative stress) |
| --- | --- | --- | --- |
| C[N+](C)(C)[C@@H](Cc1c[nH]c(=S)[nH]1)C(=O)[O-] [ERGO, L-ergothioneine] | decreased as the concentrations of ERGO increased in a dose-dependent fashion | decreased as the concentrations of ERGO increased in a dose-dependent fashion | – |
| C[N+](C)([11CH3])[C@@H](Cc1c[nH]c(=S)[nH]1)C(=O)[O-] [[^11C]ERGO] | – | – | stronger than that from nontreated counterparts across every major region of the brain |
